In PubChem BioAssay (NCI) one finds TGI and GI50 data, which are given here for ten compounds.

Common to all, as to experiment: inhibition of tumour cell growth, NCI panel, 48 h
Experiment [1] concerns UACC-257 melanoma.
In experiment [2] the test system is HT29 colon.
The subject of experiment [3] is RXF 393 renal.
Experiment [4] has as its system UACC-62 melanoma.
Experiment [5] concerns TK-10 renal.
In experiment [6] the test system is SNB-75 CNS.
Experiment [7] has as its system SK-MEL-28 melanoma.
In experiment [8] the test system is SNB-19 CNS.
Experiment [9] has as its system M14 melanoma.
The subject of experiment [10] is UO-31 renal.

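Results reflect a 48-hour exposure of cells in 96-well plates to compound at five concentrations. Abbreviation: GI50, concentration required for 50% inhibition of growth. TGI denotes the concentration required for complete inhibition of growth.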 Where only a bound is given, the exact number is not on record here.

Turning to `N#Cc1ccccc1NC(=O)c1ccccc1`, the TGI in experiment [1], in experiment [2], in experiment [3], in experiment [4], in [5] and in experiment [6] was over 100 µM in each case. Moreover, the TGI in experiment [7] and in experiment [8] was over 100 µM throughout.

As for `CN(C)CCNC(=O)c1ccc(Cl)c2c(Nc3ccc(S(N)(=O)=O)cc3)c3ccccc3nc12`, the TGI in experiment [1] came to 12.7 µM; in experiment [2], 6.41 µM; in [4], 3.05 µM; in experiment [5], 13.6 µM; in experiment [6] it was 4.72 µM; in experiment [7], 9.38 µM. The TGI in [8] was found to be 14.5 µM; in [9], 10.7 µM; in [10], 11 µM.

For the compound `CC1=NN(C(=O)c2ccc(Cl)cc2)C(=O)/C1=C/c1cccc([N+](=O)[O-])c1`, the TGI in experiment [1], in experiment [2], in [3], in [4], in experiment [5] and in experiment [7] was over 100 µM in each case. Besides, the TGI in experiment [8], in experiment [9] and in experiment [10] was over 100 µM in each case.

On to `CC1=CC(=O)C(C(C)=Nc2ccccc2Cl)C(=O)O1` (stereo not given), for which the GI50 in experiment [1], in [2], in experiment [3], in experiment [4], in experiment [5] and in [7] was over 100 µM each time. Moreover, the GI50 in experiment [8], in experiment [9] and in experiment [10] was over 100 µM in each case. Moreover, the TGI in experiment [1], in experiment [2], in experiment [3], in experiment [4], in [5] and in experiment [7] was over 100 µM each time. Further, the TGI in experiment [8], in [9] and in [10] was over 100 µM each time.

As to `C/C1=C\CC[C@@](C)(O)[C@@H]2CC3[C@@H](OC(=O)C34CC4)[C@@H](O2)[C@H](C)CCC1` (stereo not given in full), the GI50 in [1] was 20.4 µM; in experiment [2] it was 28.9 µM; in experiment [4] it was 21.3 µM; in experiment [6], 41.9 µM; in experiment [7], 61.7 µM; in experiment [8] it was 58.6 µM. The GI50 in experiment [10] was 15.3 µM. The TGI in experiment [1] was 44.1 µM; in experiment [2] it was over 100 µM; in experiment [4], 56.4 µM; in experiment [6], over 100 µM; in experiment [7], over 100 µM; in experiment [8], over 100 µM. In experiment [10], this compound registered a TGI of 29.9 µM.

Turning to `Cc1c2ccncc2c(C)c2c1[nH]c1ccc(OC(C)(C)C)cc12`, the TGI stood at 4.01 µM in experiment [1]; 7.09 µM in experiment [2]; 5.43 µM in experiment [4]; 18.1 µM in experiment [5]; 3.73 µM in [6]; 3.77 µM in [7]. The TGI in experiment [8] stood at 7.53 µM; in [9], 14.9 µM; in experiment [10] it was 4.3 µM.

For `COC1CC(n2cnc3c(N)ncnc32)OC1CO` (stereo not given), the TGI in [1], in experiment [2], in experiment [4], in [5], in [6] and in [7] was over 100 µM each time. The TGI in experiment [8], in experiment [9] and in experiment [10] was over 100 µM throughout.

Consider `N/N=C(\Cc1ccccc1)NN=C(N)N`, for which the TGI in [1], in experiment [2], in experiment [4], in experiment [5], in experiment [6] and in experiment [7] was over 100 µM throughout. Moreover, the TGI in experiment [9] and in [10] was over 100 µM throughout.

Regarding `Cc1cc(N2CCCC2)nc(N(CCCNc2ccnc3cc(Cl)ccc23)Cc2ccc3c(c2)OCO3)n1`, the GI50 is 1.84 µM in [1]; 0.541 µM in experiment [2]; 1.78 µM in [4]; 2.25 µM in [5]; 1.54 µM in experiment [6]; 1.3 µM in experiment [7]. For the same compound, the values for the GI50 in [8], in [9] and in experiment [10] were 2.45 µM, 1.37 µM and 0.677 µM, respectively. Further, the TGI in experiment [1] turned out to be 3.47 µM; in experiment [2], 2.83 µM; in experiment [4], 3.38 µM; in experiment [5], 6.81 µM; in experiment [6], 4.33 µM; in experiment [7], 2.74 µM. The TGI was 12.7 µM in [8], 3.04 µM in experiment [9] and 3.71 µM in [10].

With `C[C@H](CSC(=O)c1ccccc1)C(=O)N1c2ccccc2C[C@H]1C(=O)O`, the TGI in [1], in [2], in experiment [4], in experiment [5], in experiment [6] and in experiment [7] was over 100 µM in each case. Besides, the TGI in experiment [8] and in [10] was over 100 µM each time.
